{"source": "paper PMC10541198", "about": "“Specific quinone reductase 2 inhibitors reduce metabolic burden and reverse Alzheimer’s disease phenotype in mice” (The Journal of Clinical Investigation, 2023)", "assay_type_in_all_cases": "in vivo, mouse", "key": {"C57BL/6 mice": {"test_system": "C57BL/6 mice", "assay": "Delay fear conditioning, microinjection to hippocampal CA1", "procedure": "In order to evaluate the efficacy of some of the leading QR2is in vivo, we carried out double-blind experiments using 2 different modalities (Supplemental Methods), measuring memory that is dependent on different brain areas. First, cortical memory was tested using incidental novel taste learning (see Methods), in which an unfamiliar, but palatable and safe, taste is given for the first time, and the memory for this newly learned taste is then assessed 2 days later. This is done by measuring the volume of the taste consumed upon subsequent exposure to it ([32]) (Figure 4A). […] Next, hippocampal-dependent learning was evaluated using delay fear conditioning (DFC; see Methods) ([33]). Mice were cannulated to the CA1 region of the hippocampus and were microinjected with YB-537 (1 μL of 5 μM, Figure 4, D and H) or vehicle. […] In order to evaluate any possible effect of acute QR2i microinjection on metabolic stress in the mouse brain, ISR activation was measured by quantifying total and phosphorylated eukaryotic initiation factor 2 α (eIF2α) levels (Supplemental Figure 3A) and lipid peroxidation product, 4-hydroxynonenal (4-HNE; Supplemental Figure 3B), by immunoblot 3 hours after the injection.\nDFC was done as previously described ([7]). Briefly, mice were given 2 minutes to explore the conditioning chambers, during which baseline freezing was measured. Then, a 20 second, 4 kHz, 80 dB tone was given, coterminating with the start of a 2 second, 0.5 mA foot-shock. This was repeated twice more in 1 minute intervals. Following the third and last bout, 1 minute was given before the animals were removed from the chambers. The next day, the animals were returned to the room under the same conditions and were placed back into the chambers, and freezing to the context was measured over the course of 5 minutes. The next day, the mice were brought to unfamiliar conditioning rooms and chambers. In this unfamiliar context, the protocol from the first day was repeated, except without the foot shocks. Freezing for the cue was recorded, starting from the sounding of the first tone. All measurements were taken with a Sentec stc-tb33usb-at camera, and analysis was done with Freeze Frame software (Actimetrics). […]\nMice were anesthetized under 2% isoflurane, using an induction box (HME109, Highland Medical Equipment). They were placed in a stereotaxic device (Kopf Stereotaxic Alignment System, model 1900) under continuous 1% isoflurane anesthesia. Guide cannulas were implanted bilaterally to CA1 (from bregma: −1.9 mm AP, ±1.4 mm, −1.6 mm DV), cemented to the skull and fitted with 28- gauge dummy cannulas e xt e ndi ng 0.2 mm beyond the tip of the 1.2 mm guide cannulas. The mice were allowed at least 7 days of r ecover y before e xpe r im e nt at ion. The QR2 inhibitor YB-537 was dissolved in saline (0.9%). A total of 1μL of 5μM of YB-537 or vehicle was infused bilaterally to CA1, via a 28- gauge infusion cannula projecting 0.4 mm (drug delivery depth bregma: […]) beyond the guide cannula, connected by polyethylene tubing to a 10μL s yr i nge (Hamilton) ove r the course of 1m i n. The injection cannula was […]\nkept for 60s inside the guide cannula in order prevent osmotic seepage of the doses upward through the cannula tract. Twenty minutes following the injection, animals underwent delay fear conditioning.\nFollowing experimentation, animals were killed, brains were sliced in coronal sections, and cannula implantation was validated by imaging.\nIncidental Tast e Learning […]\nneophobia is highly conserved across species, as it is the fi rst line of defense against potentially poisonous, newly discovered foodstuffs.\nHowever, once a memory for the taste is formed and no associated ill effect is learned, the taste becomes familiar and the animal consumes it more freely, especially if it is a pleasant, palatable taste. Thus, the stronger the memory for the safe, palatable taste, the more likely the animal will consume it(32, 56). […]"}, "5xFAD mice": {"test_system": "5xFAD mice", "assay": "Nesting in 5xFAD mice", "set-up": "key to Sup. Fig. 5-2J, nesting: nesting score on a scale of 1 to 5", "procedure": "Each home cage was given six identical portions of cotton wool tubes and 24 h later the nest made was photographed from above. The images were gi ven the names of the respective cages, whi ch were coded […]\n(see ‘Blinding Measures for Animal Experiments’ section), and were analyzed by an experimenter that was blind to the conditions, groups and cage codes. […]\nAnalysis of the images was done blind, by an experimenter unaware of the experimental conditions or details, using Imaris (Bitplane) software. Surface reconstruction module was used to extract the data as volumes and / or si gnal intensities of the used markers (4-HNE, phospho- t au, amyloid β and Iba 1) ."}, "[1]": {"assay": "Body weight during chronic ingestion", "conditions": "for average weight: over 25 days of consumption; for Sup. Fig. 5-2A, body weight: in g (unit assumed)", "procedure": "Supplementary Figure 6. Chronic Drinking of 50 mg/kg YB -537 for of 1 Month Causes no Changes\nin General Mouse Physiology or Behavior but Improves Nesting Behavior Over Time. […]"}, "[2]": {"conditions": "5 μM to CA1, in % (unit assumed)"}}, "note": "Where “and” joins values, the source holds several entries; their conditions need not be identical. Equal values may be shown once.", "data": [{"smiles": "Cc1ccc(-c2cn3cccc(C)c3n2)cc1S(=O)(=O)N1CCNCC1", "note": "[YB-537]", "values": [{"measurement": "inter-trial learning during conditioning", "setting": "C57BL/6 mice; 5 μM to CA1, n=6", "result": "normal inter-trial learning"}, {"measurement": "freezing during conditioning (individual mice)", "setting": "C57BL/6 mice; 5 μM to CA1, Baseline, in % (unit assumed)", "result": "2.45 and 0.22 and 3.23 and 4.78 and 9.01 and 1.89"}, {"measurement": "freezing during conditioning (individual mice)", "setting": "C57BL/6 mice; 5 μM to CA1, CS/US 1, in % (unit assumed)", "result": "13.08 and 8.81 and 18.16 and 10.01 and 26.70 and 2.54"}, {"measurement": "freezing during conditioning (individual mice)", "setting": "C57BL/6 mice; 5 μM to CA1, CS/US 2, in % (unit assumed)", "result": "20.03 and 15.78 and 28.12 and 17.97 and 27.02 and 2.19"}, {"measurement": "freezing during conditioning (individual mice)", "setting": "C57BL/6 mice; 5 μM to CA1, CS/US 3, in % (unit assumed)", "result": "24.88 and 20.00 and 35.58 and 21.40 and 33.02 and 2.33"}, {"measurement": "freezing in response to the context (individual mice)", "setting": "C57BL/6 mice; [2]", "result": "59.92 and 49.69 and 57.37 and 25.70 and 41.84 and 33.92"}, {"measurement": "freezing in response to the cue (individual mice)", "setting": "C57BL/6 mice; [2]", "result": "51.89 and 48.39 and 35.02 and 23.60 and 5.68 and 24.28"}, {"measurement": "Nest quality", "setting": "5xFAD mice; 5xFAD 1 month, regardless of sex (Pearson r)", "result": "significantly correlated to time under treatment"}, {"measurement": "Sup. Fig. 5-2J, nesting", "setting": "5xFAD mice; Females, Day 0", "result": "2 and 3"}, {"measurement": "Sup. Fig. 5-2J, nesting", "setting": "5xFAD mice; Females, Day 7", "result": "3 and 4"}, {"measurement": "Sup. Fig. 5-2J, nesting", "setting": "5xFAD mice; Females, Day 14", "result": 4}, {"measurement": "Sup. Fig. 5-2J, nesting", "setting": "5xFAD mice; Females, Day 21", "result": "5 and 4"}, {"measurement": "Sup. Fig. 5-2J, nesting", "setting": "5xFAD mice; Males + Females, Day 0", "result": "3 and 2"}, {"measurement": "Sup. Fig. 5-2J, nesting", "setting": "5xFAD mice; Males + Females, Day 7", "result": "4 and 3"}, {"measurement": "Sup. Fig. 5-2J, nesting", "setting": "5xFAD mice; Males + Females, Day 14", "result": "4 and 3"}, {"measurement": "Sup. Fig. 5-2J, nesting", "setting": "5xFAD mice; Males + Females, Day 21", "result": "5 and 4"}, {"measurement": "Sup. Fig. 5-2J, nesting", "setting": "5xFAD mice; Males, Day 0", "result": "2 and 3"}, {"measurement": "Sup. Fig. 5-2J, nesting", "setting": "5xFAD mice; Males, Day 7", "result": "3 and 4"}, {"measurement": "Sup. Fig. 5-2J, nesting", "setting": "5xFAD mice; Males, Day 14", "result": "4 and 3"}, {"measurement": "Sup. Fig. 5-2J, nesting", "setting": "5xFAD mice; Males, Day 21", "result": "4 and 5"}, {"measurement": "average weight", "setting": "[1]; 5xFAD females", "result": "22.76 ± 0.192", "unit": "g"}, {"measurement": "average weight", "setting": "[1]; 5xFAD males", "result": "32.56 ± 0.279", "unit": "g"}, {"measurement": "Sup. Fig. 5-2A, body weight", "setting": "[1]; Female, Day 1", "result": "23 and 22 and 24 and 25 and 21 and 20"}, {"measurement": "Sup. Fig. 5-2A, body weight", "setting": "[1]; Female, Day 3", "result": "25 and 20 and 24 and 23"}, {"measurement": "Sup. Fig. 5-2A, body weight", "setting": "[1]; Female, Day 5", "result": "25 and 21 and 27 and 24 and 20"}, {"measurement": "Sup. Fig. 5-2A, body weight", "setting": "[1]; Female, Day 9", "result": "24 and 20 and 25 and 27 and 22"}, {"measurement": "Sup. Fig. 5-2A, body weight", "setting": "[1]; Female, Day 11", "result": "23 and 21 and 25 and 26 and 22"}, {"measurement": "Sup. Fig. 5-2A, body weight", "setting": "[1]; Female, Day 15", "result": "25 and 22 and 26 and 23 and 24"}, {"measurement": "Sup. Fig. 5-2A, body weight", "setting": "[1]; Female, Day 16", "result": "23 and 20 and 24"}, {"measurement": "Sup. Fig. 5-2A, body weight", "setting": "[1]; Female, Day 18", "result": "23 and 21 and 24 and 22 and 20"}, {"measurement": "Sup. Fig. 5-2A, body weight", "setting": "[1]; Female, Day 25", "result": "25 and 22 and 23 and 21"}, {"measurement": "Sup. Fig. 5-2A, body weight", "setting": "[1]; Male, Day 1", "result": "34 and 42 and 33 and 36 and 31 and 28"}, {"measurement": "Sup. Fig. 5-2A, body weight", "setting": "[1]; Male, Day 3", "result": "33 and 41 and 32 and 35 and 30 and 26"}, {"measurement": "Sup. Fig. 5-2A, body weight", "setting": "[1]; Male, Day 5", "result": "33 and 40 and 32 and 35 and 30 and 26 and 34 and 31"}, {"measurement": "Sup. Fig. 5-2A, body weight", "setting": "[1]; Male, Day 9", "result": "31 and 39 and 32 and 33 and 30 and 27 and 35"}, {"measurement": "Sup. Fig. 5-2A, body weight", "setting": "[1]; Male, Day 11", "result": "31 and 32 and 34 and 30 and 28 and 35"}, {"measurement": "Sup. Fig. 5-2A, body weight", "setting": "[1]; Male, Day 15", "result": "32 and 39 and 34 and 31 and 28 and 36"}, {"measurement": "Sup. Fig. 5-2A, body weight", "setting": "[1]; Male, Day 18", "result": "32 and 37 and 29 and 30 and 33 and 27 and 35"}, {"measurement": "Sup. Fig. 5-2A, body weight", "setting": "[1]; Male, Day 25", "result": "32 and 39 and 31 and 34 and 27"}]}]}
